≈ marks a conversion by molar mass, not a printed value.
How the values were obtained:
Aspergillus niger = assay: Tested for the whole cell antifungal activity against Aspergillus niger 48238 strain; assay type: functional
Cryptococcus neoformans = assay: Antifungal activity against Cryptococcus neoformans 2867E strain; assay type: functional
Squalene synthase = target: T1, Squalene synthase (Rattus norvegicus, UniProt Q02769); assay: Inhibition of rat liver squalene synthase(SQS)
T1 sequence (Q02769 whole entry): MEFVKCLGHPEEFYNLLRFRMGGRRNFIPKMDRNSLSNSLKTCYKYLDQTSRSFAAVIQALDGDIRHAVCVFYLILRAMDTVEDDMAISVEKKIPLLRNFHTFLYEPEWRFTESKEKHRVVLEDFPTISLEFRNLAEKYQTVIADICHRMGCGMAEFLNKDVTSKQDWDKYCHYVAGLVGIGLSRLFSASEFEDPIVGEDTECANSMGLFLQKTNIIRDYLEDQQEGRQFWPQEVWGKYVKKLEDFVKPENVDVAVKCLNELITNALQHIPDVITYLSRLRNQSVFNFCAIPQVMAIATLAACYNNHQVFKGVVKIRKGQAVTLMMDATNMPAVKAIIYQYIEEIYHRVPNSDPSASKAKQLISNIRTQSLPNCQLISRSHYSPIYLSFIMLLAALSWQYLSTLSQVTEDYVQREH

Candida albicans = assay: Antifungal activity against Candida albicans C316 strain; assay type: functional

| MIC (Aspergillus niger) [µg/mL] | MIC (Cryptococcus neoformans) [µg/mL] | IC50 (Squalene synthase) [nM] | MIC (Candida albicans) [µg/mL] | SMILES |
| --- | --- | --- | --- | --- |
| > 125 | > 125 | 2 | > 125 | C=C(CC[C@]12O[C@H](C(=O)O)[C@@](O)(C(=O)O)[C@](C(=O)O)(O1)[C@H](OC(C)=O)[C@H]2O)[C@@H](OC(C)=O)[C@H](C)Cc1ccccc1 |
| > 125 | > 125 |  | > 125 | C=C(CC[C@]12O[C@H](C(=O)O)[C@@](O)(C(=O)O)[C@](C(=O)O)(O1)[C@H](OC(=O)CCC)[C@H]2OC(=O)CCC)[C@@H](OC(C)=O)[C@H](C)Cc1ccccc1 |
| > 32 | > 32 |  | > 32 | C=C(CC[C@]12O[C@H](C(=O)O)[C@@](O)(C(=O)O)[C@](C(=O)O)(O1)[C@H](OC(=O)/C=C/[C@@H](C)C[C@@H](C)CC)[C@H]2OC(=O)CCCCCCC)[C@@H](OC(C)=O)[C@H](C)Cc1ccccc1 |
| > 125 | > 125 |  | > 125 | C=C(CC[C@]12O[C@H](C(=O)O)[C@@](O)(C(=O)O)[C@](C(=O)O)(O1)[C@H](OC(=O)CCCC)[C@H]2O)[C@@H](OC(C)=O)[C@H](C)Cc1ccccc1 |
| > 125 | > 125 | 15 | 125 (≈ 167 µM) | C=C(CC[C@]12O[C@H](C(=O)O)[C@@](O)(C(=O)O)[C@](C(=O)O)(O1)[C@H](OC(=O)/C=C/[C@@H](C)C[C@@H](C)CC)[C@H]2OC(=O)OC)[C@@H](OC(C)=O)[C@H](C)Cc1ccccc1 |
| > 125 | > 125 | 303 | > 125 | C=C(CC[C@]12O[C@H](C(=O)O)[C@@](O)(C(=O)O)[C@](C(=O)O)(O1)[C@H](O)[C@H]2OC(=O)CCCCCCCCC)[C@@H](OC(C)=O)[C@H](C)Cc1ccccc1 |
| > 125 | > 125 | 380 | > 125 | C=C(CC[C@]12O[C@H](C(=O)O)[C@@](O)(C(=O)O)[C@](C(=O)O)(O1)[C@H](O)[C@H]2OC(=O)OC)[C@@H](OC(C)=O)[C@H](C)Cc1ccccc1 |
| > 125 | > 125 | 8 | > 125 | C=C(CC[C@]12O[C@H](C(=O)O)[C@@](O)(C(=O)O)[C@](C(=O)O)(O1)[C@H](OC(=O)c1ccccc1)[C@H]2O)[C@@H](OC(C)=O)[C@H](C)Cc1ccccc1 |
| 62 (≈ 85.3 µM) | 2 (≈ 2.75 µM) | 9 | 125 (≈ 172 µM) | C=C(CC[C@]12O[C@H](C(=O)O)[C@@](O)(C(=O)O)[C@](C(=O)O)(O1)[C@H](OC(=O)CCCCCCc1ccccc1)[C@H]2O)[C@@H](OC(C)=O)[C@H](C)Cc1ccccc1 |
| > 125 |  |  | > 125 | C=C(CC[C@]12O[C@H](C(=O)O)[C@@](O)(C(=O)O)[C@](C(=O)O)(O1)[C@H](OC(C)=O)[C@H]2OC(C)=O)[C@@H](OC(C)=O)[C@H](C)Cc1ccccc1 |
| > 125 | > 125 | 280 | > 125 | C=C(CC[C@]12O[C@H](C(=O)O)[C@@](O)(C(=O)O)[C@](C(=O)O)(O1)[C@H](OC(=O)CCCCCCC)[C@H]2OC(=O)CCCCCCC)[C@@H](OC(C)=O)[C@H](C)Cc1ccccc1 |
| > 125 |  |  | > 125 | C=C(CC[C@]12O[C@H](C(=O)O)[C@@](O)(C(=O)O)[C@](C(=O)O)(O1)[C@H](O)[C@H]2OC(C)=O)[C@@H](OC(C)=O)[C@H](C)Cc1ccccc1 |
| 16 (≈ 23.2 µM) | 0.5 (≈ 0.724 µM) |  | 8 (≈ 11.6 µM) | C=C(CC[C@]12O[C@H](C(=O)O)[C@@](O)(C(=O)O)[C@](C(=O)O)(O1)[C@H](OC(=O)/C=C/[C@@H](C)C[C@@H](C)CC)[C@H]2O)[C@@H](OC(C)=O)[C@H](C)Cc1ccccc1 [ZARAGOZIC ACIDS A] |
| > 125 | > 125 | 4 | > 125 | C=C(CC[C@]12O[C@H](C(=O)O)[C@@](O)(C(=O)O)[C@](C(=O)O)(O1)[C@H](OC(=O)OCCCC)[C@H]2O)[C@@H](OC(C)=O)[C@H](C)Cc1ccccc1 |
| 0.25 (≈ 0.353 µM) | 0.06 (≈ 0.0847 µM) | 7 | 1 (≈ 1.41 µM) | C=C(CC[C@]12O[C@H](C(=O)O)[C@@](O)(C(=O)O)[C@](C(=O)O)(O1)[C@H](OC(=O)OCCCCCCCCC)[C@H]2O)[C@@H](OC(C)=O)[C@H](C)Cc1ccccc1 |
| > 125 | 31 (≈ 46.4 µM) | 4 | > 125 | C=C(CC[C@]12O[C@H](C(=O)O)[C@@](O)(C(=O)O)[C@](C(=O)O)(O1)[C@H](OC(=O)/C=C/c1ccccc1)[C@H]2O)[C@@H](OC(C)=O)[C@H](C)Cc1ccccc1 |
| > 125 | > 125 |  | > 125 | C=C(CC[C@]12O[C@H](C(=O)O)[C@@](O)(C(=O)O)[C@](C(=O)O)(O1)[C@H](O)[C@H]2O)[C@@H](OC(C)=O)[C@H](C)Cc1ccccc1 |
| 62 (≈ 93.6 µM) | 2 (≈ 3.02 µM) |  | 62 (≈ 93.6 µM) | C=C(CC[C@]12O[C@H](C(=O)O)[C@@](O)(C(=O)O)[C@](C(=O)O)(O1)[C@H](OC(=O)CC1CCCCC1)[C@H]2O)[C@@H](OC(C)=O)[C@H](C)Cc1ccccc1 |
| 8 (≈ 10.9 µM) | 1 (≈ 1.36 µM) | 10 | > 125 | C=C(CC[C@]12O[C@H](C(=O)O)[C@@](O)(C(=O)O)[C@](C(=O)O)(O1)[C@H](OC(=O)/C=C/[C@@H](C)C[C@@H](C)CC)[C@H]2OC(C)=O)[C@@H](OC(C)=O)[C@H](C)Cc1ccccc1 |
| > 62 | 31 (≈ 47.8 µM) | 17 | > 62 | C=C(CC[C@]12O[C@H](C(=O)O)[C@@](O)(C(=O)O)[C@](C(=O)O)(O1)[C@H](OC(=O)C1CCCCC1)[C@H]2O)[C@@H](OC(C)=O)[C@H](C)Cc1ccccc1 |
| 8 (≈ 12 µM) | 1 (≈ 1.5 µM) | 3 | 31 (≈ 46.6 µM) | C=C(CC[C@]12O[C@H](C(=O)O)[C@@](O)(C(=O)O)[C@](C(=O)O)(O1)[C@H](OC(=O)CCCCCCC)[C@H]2O)[C@@H](OC(C)=O)[C@H](C)Cc1ccccc1 |
| 2 (≈ 2.89 µM) | 2 (≈ 2.89 µM) | 8 | 16 (≈ 23.1 µM) | C=C(CC[C@]12O[C@H](C(=O)O)[C@@](O)(C(=O)O)[C@](C(=O)O)(O1)[C@H](OC(=O)CCCCCCCCC)[C@H]2O)[C@@H](OC(C)=O)[C@H](C)Cc1ccccc1 |
| > 125 | > 125 | 3 | > 125 | C=C(CC[C@]12O[C@H](C(=O)O)[C@@](O)(C(=O)O)[C@](C(=O)O)(O1)[C@H](OC(=O)OC)[C@H]2O)[C@@H](OC(C)=O)[C@H](C)Cc1ccccc1 |
| > 125 | > 125 | > 500 | > 125 | C=C(CC[C@]12O[C@H](C(=O)O)[C@@](O)(C(=O)O)[C@](C(=O)O)(O1)[C@H](O)[C@H]2OC(=O)CCCCCCC)[C@@H](OC(C)=O)[C@H](C)Cc1ccccc1 |
